Reference: ChEMBL document CHEMBL4507311, “Data for DCP probe A-1155463” (2021)

Key:
[1] = GPCRScan assay: inhibition of GABA/PBR; set-up: species or system Rattus norvegicus; radioligand conc. used [nm] 0.3 – 2.0, parental cells brain tissue
[2] = biological target: Atypical kinase COQ8A, mitochondrial (Homo sapiens) (UniProt Q8NI60); settings: Compound concentration 1000.0 nM
[3] = biological target: RAC-gamma serine/threonine-protein kinase (Homo sapiens) (UniProt Q9Y243); settings: Compound concentration 1000.0 nM
Sequence of RAC-gamma serine/threonine-protein kinase (Homo sapiens) (Q9Y243 whole entry): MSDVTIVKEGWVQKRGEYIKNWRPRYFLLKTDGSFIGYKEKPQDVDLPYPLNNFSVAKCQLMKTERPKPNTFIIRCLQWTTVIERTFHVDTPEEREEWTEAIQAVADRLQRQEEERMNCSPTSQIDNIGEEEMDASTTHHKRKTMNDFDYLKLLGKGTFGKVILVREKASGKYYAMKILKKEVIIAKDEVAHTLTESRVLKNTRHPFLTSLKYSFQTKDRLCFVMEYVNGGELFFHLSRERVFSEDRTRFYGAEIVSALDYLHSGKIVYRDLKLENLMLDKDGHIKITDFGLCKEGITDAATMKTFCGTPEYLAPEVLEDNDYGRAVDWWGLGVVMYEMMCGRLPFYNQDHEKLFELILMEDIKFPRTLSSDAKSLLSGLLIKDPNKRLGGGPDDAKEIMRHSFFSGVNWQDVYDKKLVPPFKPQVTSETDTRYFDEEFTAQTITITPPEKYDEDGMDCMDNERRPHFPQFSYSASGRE

[4] = biological target: Mitogen-activated protein kinase kinase kinase 5 (Homo sapiens) (UniProt Q99683); settings: Compound concentration 1000.0 nM
[5] = biological target: Bone morphogenetic protein receptor type-1A (Homo sapiens) (UniProt P36894); settings: Compound concentration 1000.0 nM
Sequence of Bone morphogenetic protein receptor type-1A (Homo sapiens) (P36894 whole entry): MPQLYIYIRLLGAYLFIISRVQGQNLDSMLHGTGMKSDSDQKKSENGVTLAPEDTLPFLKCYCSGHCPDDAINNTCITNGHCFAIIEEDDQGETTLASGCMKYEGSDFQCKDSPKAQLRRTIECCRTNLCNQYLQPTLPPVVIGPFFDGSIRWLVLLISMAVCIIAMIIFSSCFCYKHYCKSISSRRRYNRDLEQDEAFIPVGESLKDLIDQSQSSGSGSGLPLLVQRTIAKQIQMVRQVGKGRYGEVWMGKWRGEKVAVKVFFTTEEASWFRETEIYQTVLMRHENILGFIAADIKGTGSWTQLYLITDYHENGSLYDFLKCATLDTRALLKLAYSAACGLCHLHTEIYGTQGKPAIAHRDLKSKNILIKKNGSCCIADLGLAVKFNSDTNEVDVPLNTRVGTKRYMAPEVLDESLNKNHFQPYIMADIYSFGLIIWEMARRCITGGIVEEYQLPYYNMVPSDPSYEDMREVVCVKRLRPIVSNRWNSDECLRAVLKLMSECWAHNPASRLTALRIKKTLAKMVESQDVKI

[6] = biological target: Bone morphogenetic protein receptor type-2 (Homo sapiens) (UniProt Q13873); settings: Compound concentration 1000.0 nM
[7] = biological target: Calcium/calmodulin-dependent protein kinase type 1D (Homo sapiens) (UniProt Q8IU85); settings: Compound concentration 1000.0 nM
[8] = biological target: Calcium/calmodulin-dependent protein kinase type IV (Homo sapiens) (UniProt Q16566); settings: Compound concentration 1000.0 nM
[9] = biological target: Cyclin-dependent kinase-like 5 (Homo sapiens) (UniProt O76039); settings: Compound concentration 1000.0 nM
[10] = biological target: Casein kinase I isoform gamma-3 (Homo sapiens) (UniProt Q9Y6M4); settings: Compound concentration 1000.0 nM
[11] = biological target: Megakaryocyte-associated tyrosine-protein kinase (Homo sapiens) (UniProt P42679); settings: Compound concentration 1000.0 nM
[12] = biological target: Serine/threonine-protein kinase DCLK3 (Homo sapiens) (UniProt Q9C098); settings: Compound concentration 1000.0 nM
Sequence of Serine/threonine-protein kinase DCLK3 (Homo sapiens) (Q9C098 whole entry): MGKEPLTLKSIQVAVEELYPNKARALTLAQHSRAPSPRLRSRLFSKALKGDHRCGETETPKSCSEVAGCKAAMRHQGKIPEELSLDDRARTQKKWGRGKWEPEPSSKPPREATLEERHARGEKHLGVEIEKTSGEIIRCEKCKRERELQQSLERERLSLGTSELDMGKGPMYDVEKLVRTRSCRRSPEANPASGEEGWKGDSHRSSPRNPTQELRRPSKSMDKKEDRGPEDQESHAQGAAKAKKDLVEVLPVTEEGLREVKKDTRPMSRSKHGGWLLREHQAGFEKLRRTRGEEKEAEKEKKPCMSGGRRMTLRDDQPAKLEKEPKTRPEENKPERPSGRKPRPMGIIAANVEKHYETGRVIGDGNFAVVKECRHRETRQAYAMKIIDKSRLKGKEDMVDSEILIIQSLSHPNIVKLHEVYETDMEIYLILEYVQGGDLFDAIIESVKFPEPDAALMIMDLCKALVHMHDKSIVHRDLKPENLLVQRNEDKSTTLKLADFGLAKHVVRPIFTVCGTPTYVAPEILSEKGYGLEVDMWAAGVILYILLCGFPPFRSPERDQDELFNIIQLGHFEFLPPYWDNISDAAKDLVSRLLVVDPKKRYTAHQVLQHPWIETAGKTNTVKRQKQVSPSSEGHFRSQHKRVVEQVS

[13] = tested on: Epidermal growth factor receptor (Homo sapiens), P00533 [L858R]; settings: Compound concentration 1000.0 nM
[14] = biological target: Ephrin type-A receptor 4 (Homo sapiens) (UniProt P54764); settings: Compound concentration 1000.0 nM
[15] = tested on: Fibroblast growth factor receptor 3 (Homo sapiens), P22607 [G697C]; settings: Compound concentration 1000.0 nM
[16] = biological target: Vascular endothelial growth factor receptor 3 (Homo sapiens) (UniProt P35916); settings: Compound concentration 1000.0 nM
[17] = biological target: Glycogen synthase kinase-3 alpha (Homo sapiens) (UniProt P49840); settings: Compound concentration 1000.0 nM
[18] = biological target: Serine/threonine-protein kinase haspin (Homo sapiens) (UniProt Q8TF76); settings: Compound concentration 1000.0 nM
Sequence of Serine/threonine-protein kinase haspin (Homo sapiens) (Q8TF76 whole entry): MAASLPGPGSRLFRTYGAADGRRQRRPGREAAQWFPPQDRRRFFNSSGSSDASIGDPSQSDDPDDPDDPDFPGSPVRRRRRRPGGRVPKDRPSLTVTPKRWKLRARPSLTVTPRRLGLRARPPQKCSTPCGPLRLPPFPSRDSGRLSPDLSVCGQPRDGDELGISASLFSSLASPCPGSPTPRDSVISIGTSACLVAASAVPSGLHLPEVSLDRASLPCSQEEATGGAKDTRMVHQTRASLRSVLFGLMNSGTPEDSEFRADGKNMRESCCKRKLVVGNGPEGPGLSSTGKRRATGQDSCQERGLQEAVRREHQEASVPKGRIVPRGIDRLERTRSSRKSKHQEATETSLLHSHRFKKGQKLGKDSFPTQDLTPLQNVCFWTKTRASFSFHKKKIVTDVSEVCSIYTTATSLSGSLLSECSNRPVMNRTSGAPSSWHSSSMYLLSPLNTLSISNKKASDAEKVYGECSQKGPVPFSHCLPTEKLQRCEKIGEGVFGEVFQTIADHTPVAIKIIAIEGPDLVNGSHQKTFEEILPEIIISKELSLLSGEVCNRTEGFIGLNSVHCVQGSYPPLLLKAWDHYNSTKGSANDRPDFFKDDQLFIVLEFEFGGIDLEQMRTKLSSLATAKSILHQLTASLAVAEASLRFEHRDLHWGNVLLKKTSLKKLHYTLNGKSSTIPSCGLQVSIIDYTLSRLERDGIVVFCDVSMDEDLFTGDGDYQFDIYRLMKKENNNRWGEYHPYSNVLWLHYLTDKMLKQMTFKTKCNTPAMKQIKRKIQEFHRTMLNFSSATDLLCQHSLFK

[19] = biological target: Inhibitor of nuclear factor kappa-B kinase subunit beta (Homo sapiens) (UniProt O14920); settings: Compound concentration 1000.0 nM
[20] = biological target: Tyrosine-protein kinase Lck (Homo sapiens) (UniProt P06239); settings: Compound concentration 1000.0 nM
[21] = biological target: Serine/threonine-protein kinase MAK (Homo sapiens) (UniProt P20794); settings: Compound concentration 1000.0 nM
[22] = biological target: MAP/microtubule affinity-regulating kinase 3 (Homo sapiens) (UniProt P27448); settings: Compound concentration 1000.0 nM
[23] = biological target: MAP/microtubule affinity-regulating kinase 4 (Homo sapiens) (UniProt Q96L34); settings: Compound concentration 1000.0 nM
[24] = biological target: Myosin light chain kinase, smooth muscle (Homo sapiens) (UniProt Q15746); settings: Compound concentration 1000.0 nM
[25] = biological target: Serine/threonine-protein kinase Nek11 (Homo sapiens) (UniProt Q8NG66); settings: Compound concentration 1000.0 nM
[26] = biological target: Serine/threonine-protein kinase NLK (Homo sapiens) (UniProt Q9UBE8); settings: Compound concentration 1000.0 nM
[27] = biological target: Mitogen-activated protein kinase 13 (Homo sapiens) (UniProt O15264); settings: Compound concentration 1000.0 nM
Sequence of Mitogen-activated protein kinase 13 (Homo sapiens) (O15264 whole entry, canonical isoform): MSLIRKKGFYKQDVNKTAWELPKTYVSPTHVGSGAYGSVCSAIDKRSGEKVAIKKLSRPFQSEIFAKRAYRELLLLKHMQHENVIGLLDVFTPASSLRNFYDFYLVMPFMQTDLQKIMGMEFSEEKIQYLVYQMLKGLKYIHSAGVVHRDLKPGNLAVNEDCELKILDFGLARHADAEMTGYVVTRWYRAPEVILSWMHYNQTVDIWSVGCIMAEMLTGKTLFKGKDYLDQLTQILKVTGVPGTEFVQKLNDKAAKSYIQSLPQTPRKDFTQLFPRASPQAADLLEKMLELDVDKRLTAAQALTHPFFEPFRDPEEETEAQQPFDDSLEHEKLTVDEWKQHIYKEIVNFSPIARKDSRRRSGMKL

[28] = tested on: Phosphatidylinositol 4,5-bisphosphate 3-kinase catalytic subunit alpha isoform (Homo sapiens), P42336 [H1047Y]; settings: Compound concentration 1000.0 nM
Sequence of Phosphatidylinositol 4,5-bisphosphate 3-kinase catalytic subunit alpha isoform (Homo sapiens), P42336 [H1047Y] (P42336 whole entry H1047Y, canonical isoform): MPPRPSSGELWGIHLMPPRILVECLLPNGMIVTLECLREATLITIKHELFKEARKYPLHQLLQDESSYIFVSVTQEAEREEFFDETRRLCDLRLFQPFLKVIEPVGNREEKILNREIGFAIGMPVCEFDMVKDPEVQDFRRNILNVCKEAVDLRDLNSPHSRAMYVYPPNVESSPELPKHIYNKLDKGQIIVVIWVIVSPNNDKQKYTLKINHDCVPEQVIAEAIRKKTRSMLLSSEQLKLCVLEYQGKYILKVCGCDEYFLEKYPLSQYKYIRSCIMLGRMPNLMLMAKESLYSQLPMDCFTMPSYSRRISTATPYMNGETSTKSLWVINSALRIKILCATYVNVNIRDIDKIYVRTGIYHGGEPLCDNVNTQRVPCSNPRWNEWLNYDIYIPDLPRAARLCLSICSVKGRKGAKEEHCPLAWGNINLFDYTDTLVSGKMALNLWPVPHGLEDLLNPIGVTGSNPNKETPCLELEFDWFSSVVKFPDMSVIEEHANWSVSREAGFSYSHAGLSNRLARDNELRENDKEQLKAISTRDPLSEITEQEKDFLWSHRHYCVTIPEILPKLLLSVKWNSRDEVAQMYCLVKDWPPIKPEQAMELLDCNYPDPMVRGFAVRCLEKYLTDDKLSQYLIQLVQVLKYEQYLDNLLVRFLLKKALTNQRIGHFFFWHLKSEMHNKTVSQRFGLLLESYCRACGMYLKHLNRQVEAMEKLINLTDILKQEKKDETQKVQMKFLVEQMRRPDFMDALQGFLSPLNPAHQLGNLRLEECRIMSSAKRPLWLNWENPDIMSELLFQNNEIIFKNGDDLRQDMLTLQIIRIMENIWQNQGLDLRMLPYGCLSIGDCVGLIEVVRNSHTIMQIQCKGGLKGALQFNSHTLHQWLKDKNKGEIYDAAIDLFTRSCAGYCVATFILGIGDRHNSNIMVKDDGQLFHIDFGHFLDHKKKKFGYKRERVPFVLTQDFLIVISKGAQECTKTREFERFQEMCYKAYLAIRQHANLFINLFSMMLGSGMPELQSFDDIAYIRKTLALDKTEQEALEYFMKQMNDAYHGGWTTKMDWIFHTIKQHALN

[29] = biological target: cAMP-dependent protein kinase catalytic subunit alpha (Homo sapiens) (UniProt P17612); settings: Compound concentration 1000.0 nM
[30] = biological target: cAMP-dependent protein kinase catalytic subunit beta (Homo sapiens) (UniProt P22694); settings: Compound concentration 1000.0 nM
[31] = biological target: Protein kinase C theta type (Homo sapiens) (UniProt Q04759); settings: Compound concentration 1000.0 nM
[32] = biological target: Serine/threonine-protein kinase D1 (Homo sapiens) (UniProt Q15139); settings: Compound concentration 1000.0 nM
[33] = biological target: Ribosomal protein S6 kinase alpha-2 (Homo sapiens) (UniProt Q15349); settings: Compound concentration 1000.0 nM
[34] = biological target: Ribosomal protein S6 kinase alpha-6 (Homo sapiens) (UniProt Q9UK32); settings: Compound concentration 1000.0 nM
[35] = biological target: Serine/threonine-protein kinase Sgk1 (Homo sapiens) (UniProt O00141); settings: Compound concentration 1000.0 nM
[36] = biological target: Tyrosine-protein kinase receptor Tie-1 (Homo sapiens) (UniProt P35590); settings: Compound concentration 1000.0 nM
[37] = biological target: NT-3 growth factor receptor (Homo sapiens) (UniProt Q16288); settings: Compound concentration 1000.0 nM
Sequence of NT-3 growth factor receptor (Homo sapiens) (Q16288 32-839 limits assumed): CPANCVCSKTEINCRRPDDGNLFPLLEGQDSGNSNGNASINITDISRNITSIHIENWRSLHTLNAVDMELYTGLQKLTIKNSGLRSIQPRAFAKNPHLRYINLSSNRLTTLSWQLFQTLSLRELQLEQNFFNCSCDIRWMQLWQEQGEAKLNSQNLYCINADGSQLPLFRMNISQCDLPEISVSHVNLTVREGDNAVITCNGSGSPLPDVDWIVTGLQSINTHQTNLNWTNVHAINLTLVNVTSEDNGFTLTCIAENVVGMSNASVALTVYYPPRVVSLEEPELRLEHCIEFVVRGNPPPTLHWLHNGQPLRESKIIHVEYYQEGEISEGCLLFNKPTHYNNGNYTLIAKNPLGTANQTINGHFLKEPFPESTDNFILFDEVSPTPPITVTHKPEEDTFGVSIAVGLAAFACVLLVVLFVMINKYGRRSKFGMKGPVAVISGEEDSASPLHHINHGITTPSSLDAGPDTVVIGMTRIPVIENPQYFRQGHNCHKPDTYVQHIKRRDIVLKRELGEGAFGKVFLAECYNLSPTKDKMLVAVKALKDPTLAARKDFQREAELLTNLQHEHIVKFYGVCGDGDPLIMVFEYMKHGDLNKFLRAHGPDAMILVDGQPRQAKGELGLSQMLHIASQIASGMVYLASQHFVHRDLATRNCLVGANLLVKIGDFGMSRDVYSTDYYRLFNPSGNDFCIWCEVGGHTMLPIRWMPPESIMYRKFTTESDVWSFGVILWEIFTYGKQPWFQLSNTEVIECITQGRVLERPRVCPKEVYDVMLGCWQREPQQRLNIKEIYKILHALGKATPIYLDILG

Histamine H3 receptor = Histamine H3 receptor (Homo sapiens, UniProt Q9Y5N1); settings: Compound concentration 10.0 uM
[38] = biological target: T1, Alpha-2A adrenergic receptor (Homo sapiens) (UniProt P08913); settings: Compound concentration 10.0 uM
T1 sequence (whole entry): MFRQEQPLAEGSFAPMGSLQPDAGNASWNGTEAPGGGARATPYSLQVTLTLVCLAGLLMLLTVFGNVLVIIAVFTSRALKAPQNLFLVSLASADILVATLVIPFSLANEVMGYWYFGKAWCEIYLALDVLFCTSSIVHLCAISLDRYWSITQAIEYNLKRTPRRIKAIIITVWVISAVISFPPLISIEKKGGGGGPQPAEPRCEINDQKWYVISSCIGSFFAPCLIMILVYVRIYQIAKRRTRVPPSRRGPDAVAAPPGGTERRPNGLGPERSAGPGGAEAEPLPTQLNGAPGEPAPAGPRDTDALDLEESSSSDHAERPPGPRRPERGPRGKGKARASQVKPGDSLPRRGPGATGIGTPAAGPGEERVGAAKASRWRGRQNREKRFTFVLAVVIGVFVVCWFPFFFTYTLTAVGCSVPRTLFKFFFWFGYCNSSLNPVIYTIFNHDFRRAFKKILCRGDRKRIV

SMILES: CN(C)CC#Cc1ccc(OCCCc2sc(N3CCc4cccc(C(=O)Nc5nc6ccccc6s5)c4C3)nc2C(=O)O)c(F)c1 [A-1155463]
- Ki [1]: 794 nM
- pKi [1]: 6.1
- residual activity [2]: 100%
- residual activity [3]: 100%
- residual activity [4]: 94%
- residual activity [5]: 99%
- residual activity [6]: 100%
- residual activity [7]: 90%
- residual activity [8]: 98%
- residual activity [9]: 96%
- residual activity [10]: 100%
- residual activity [11]: 96%
- residual activity [12]: 100%
- residual activity [13]: 89%
- residual activity [14]: 88%
- residual activity [15]: 88%
- residual activity [16]: 100%
- residual activity [17]: 89%
- residual activity [18]: 100%
- residual activity [19]: 72%
- residual activity [20]: 100%
- residual activity [21]: 100%
- residual activity [22]: 38%
- residual activity [23]: 76%
- residual activity [24]: 81%
- residual activity [25]: 100%
- residual activity [26]: 80%
- residual activity [27]: 97%
- residual activity [28]: 100%
- residual activity [29]: 89%
- residual activity [30]: 100%
- residual activity [31]: 92%
- residual activity [32]: 100%
- residual activity [33]: 100%
- residual activity [34]: 97%
- residual activity [35]: 100%
- residual activity [36]: 85%
- residual activity [37]: 100%
- inhibition (Histamine H3 receptor): 53.3%
- inhibition [38]: 7.32%
